One compound from patent US20250222011A1, “DRUG TARGET FOR INHIBITING TUMOR, USE, AND ORAL DRUG” (CHI BIOTECH CO., LTD., priority 2024, published 2025) can be followed below.

Experiment [1] concerns lung adenocarcinoma cells H1299. Kind of experiment: Apoptosis by Annexin V and propidium iodide staining, flow cytometry. The settings on record: 0.5 mg/mL ATCA, P<0.05, n=4. The class given is cell-based. The source says: (§1) In the experiment of ATCA inducing apoptosis in lung cancer cells, Annexin V and propidium iodide were used to stain the cancer cells and then detected by flow cytometry.
(In general: A flow cytometer gives signals particle by particle.)

Experiment [2] relates to lung adenocarcinoma cells A549. The description is as above. The class given is cell-based. Particulars: 0.5 mg/mL ATCA, P<0.05, n=4.
Excerpt: as §1

In experiment [3] the target is T1, EEF2 (Homo sapiens, UniProt P13639).
T1 construct: a cell lysate was collected and centrifuged at 17,000 g; endogenous in cells; host or cells: H1299
Kind of experiment: CESTA-WB (cellular thermal shift assay-Western blotting), H1299 cell lysate. The class given is binding. The settings on record: ATCA 10 nM to 10 mM, 55° C. for 3 min, FIG. 1. How it is done:
(§2) CESTA-WB experiment: H1299 cells were plated and cultured in a 15 cm dish, and when a cell density reached about 90% to 100%, the medium was aspirated; the cells were washed twice with PBS, and 2 mL of Lysis Buffer (RB Buffer, 10% N-Dodecyl-β-D-maltoside, and 1× protease inhibitor) was added to each dish and placed flatly on ice to allow lysis for 30 min, and a cell lysate was collected and centrifuged at 17,000 g, 4° C. for 10 min; a resulting supernatant was quantified using a BCA kit. 45 μL of a whole protein was added in a PCR tube, ATCA was added to final concentrations of 10 mM, 1 mM, 100 μM, 10 μM, 1 μM, 100 nM, and 10 nM, respectively, and allowed to stand at 25° C. for 30 min to allow the ATCA to fully interact with the whole protein; while another two tubes without ATCA were taken as controls. The experimental group was treated at 55° C. for 3 min, while one tube in the control group was treated at 37° C. for 3 min, and the other tube was treated at 50° C. for 3 min; centrifugation was conducted at 17,000×g for 10 min at 4° C. to remove denatured proteins. The supernatant was transferred into a new PCR tube, and 5 μg of the supernatant was added into 5×SDS Loading Buffer to allow denaturation in a 100° C. water bath; the Western Blotting was conducted to quantify EEF2, EIF2S1, B-actin, and Vinculin proteins.
(§3) Western Blotting experiment: the sample and molecular weight standard of pre-stained protein were loaded onto an SDS-PAGE gel (10 cmx 10 cm) to allow electrophoresis at 100 V for 40 min. The proteins in SDS-PAGE were transferred to nitrocellulose membrane at 100 V, 230 mA within 1 h. After transfer, the nitrocellulose membrane was washed with 25 mL of TBS for 5 min at room temperature. The nitrocellulose membrane was placed in 25 mL of blocking buffer (TBST, 5% skim milk) and incubated at room temperature for 1 h. The membrane was washed three times with 15 mL TBST, 5 min each. […]
In general terms: Immunoblotting shows a protein as a band on a membrane.

For experiment [4], the target named is T2, EIF2S1 (Homo sapiens, UniProt P05198).
T2 construct: endogenous in cells; host or cells: H1299
Described as above. Particulars: ATCA 10 nM to 10 mM, 55° C. for 3 min, FIG. 1. The class given is binding. How it is done:
as §2, §3

The target of experiment [5] is T3, Vinculin (Homo sapiens, UniProt P18206).
T3 construct: endogenous in cells; host or cells: H1299
T3 sequence (P18206 1-1066 isoform P18206-2): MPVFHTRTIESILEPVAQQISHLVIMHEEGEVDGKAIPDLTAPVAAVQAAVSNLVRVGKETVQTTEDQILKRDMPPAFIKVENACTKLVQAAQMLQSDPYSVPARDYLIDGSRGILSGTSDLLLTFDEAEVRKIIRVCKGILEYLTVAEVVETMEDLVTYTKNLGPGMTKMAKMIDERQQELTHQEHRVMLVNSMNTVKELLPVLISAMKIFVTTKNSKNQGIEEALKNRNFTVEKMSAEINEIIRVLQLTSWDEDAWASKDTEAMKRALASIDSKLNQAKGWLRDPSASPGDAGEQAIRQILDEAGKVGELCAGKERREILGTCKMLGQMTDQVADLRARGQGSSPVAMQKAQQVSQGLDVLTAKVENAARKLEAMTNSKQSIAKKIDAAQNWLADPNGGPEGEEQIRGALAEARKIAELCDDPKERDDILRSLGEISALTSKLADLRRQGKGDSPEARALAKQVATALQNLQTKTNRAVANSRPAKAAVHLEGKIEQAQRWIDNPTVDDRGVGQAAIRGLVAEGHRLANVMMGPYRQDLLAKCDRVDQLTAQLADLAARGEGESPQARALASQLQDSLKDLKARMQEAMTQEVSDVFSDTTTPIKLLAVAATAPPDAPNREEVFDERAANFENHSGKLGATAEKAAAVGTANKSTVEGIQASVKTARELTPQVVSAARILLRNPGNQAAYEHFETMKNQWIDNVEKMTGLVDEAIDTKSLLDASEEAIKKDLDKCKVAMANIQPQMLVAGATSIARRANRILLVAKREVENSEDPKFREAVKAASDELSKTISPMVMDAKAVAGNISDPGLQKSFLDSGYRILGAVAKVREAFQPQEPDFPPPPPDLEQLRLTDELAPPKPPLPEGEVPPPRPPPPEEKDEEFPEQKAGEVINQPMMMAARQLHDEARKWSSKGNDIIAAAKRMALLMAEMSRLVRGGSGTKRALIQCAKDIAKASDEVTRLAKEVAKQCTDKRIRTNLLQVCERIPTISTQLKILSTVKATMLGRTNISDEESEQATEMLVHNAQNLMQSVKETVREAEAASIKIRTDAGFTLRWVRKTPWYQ
Described as above. The experiment is classed as binding. Particulars: ATCA 10 nM to 10 mM, 55° C. for 3 min, FIG. 1. On the procedure: as §2, §3

T2 sequence (P05198 whole entry): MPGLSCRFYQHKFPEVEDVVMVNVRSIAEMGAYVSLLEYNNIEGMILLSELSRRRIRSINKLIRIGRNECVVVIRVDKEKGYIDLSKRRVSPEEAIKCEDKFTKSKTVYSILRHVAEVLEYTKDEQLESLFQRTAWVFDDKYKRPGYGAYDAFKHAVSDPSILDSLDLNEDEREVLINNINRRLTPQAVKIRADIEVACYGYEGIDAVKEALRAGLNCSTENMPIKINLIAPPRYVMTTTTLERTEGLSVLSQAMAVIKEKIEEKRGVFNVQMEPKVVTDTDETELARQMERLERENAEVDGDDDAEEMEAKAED

Turning to `O=C(O)C1=CC(=C(c2ccc(O)c(C(=O)O)c2)c2ccc(O)c(C(=O)O)c2)C=CC1=O` [ATCA, aurintricarboxylic acid], the “apoptosis of H1299 cells” value in experiment [1] is listed as “significant apoptosis”. In addition, the “apoptosis of A549 cells” value in experiment [2] is reported as “significant apoptosis”. In experiment [3], the “binding to non-target protein EEF2” value is recorded as “did not bind”. For the same compound, in experiment [4], the “binding to target protein EIF2S1” value is recorded as “binds”. For the same compound, in experiment [5], the “binding to non-target protein Vinculin” value is recorded as “did not bind”.
